Source: PubChem BioAssay (NCI)
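Grown in 96-well plates, cells were treated for 48 hours with each compound at five concentrations. Insufficient inhibition: endpoint recorded as highest concentration tested. GI50 is the concentration that inhibits growth by half. TGI: concentration producing complete growth inhibition.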

Tests used:
Experiment in all cases: NCI tumour cell line growth inhibition, 48 h
[1] = tested on: 786-0 renal
[2] = tested on: A498 renal
[3] = tested on: A549 NSCLC
[4] = tested on: ACHN renal
[5] = tested on: BT-549 breast
[6] = tested on: CAKI-1 renal
[7] = tested on: CCRF-CEM leukemia
[8] = tested on: COLO 205 colon
[9] = tested on: DU-145 prostate
[10] = tested on: HCC-2998 colon
[11] = tested on: HCT-116 colon
[12] = tested on: HCT-15 colon
[13] = tested on: HL-60(TB) leukemia
[14] = tested on: HOP-62 NSCLC
[15] = tested on: HOP-92 NSCLC
[16] = tested on: HS 578T breast
[17] = tested on: HT29 colon
[18] = tested on: IGROV1 ovarian
[19] = tested on: K-562 leukemia
[20] = tested on: KM12 colon
[21] = tested on: LOX IMVI melanoma
[22] = tested on: M14 melanoma
[23] = tested on: MALME-3M melanoma
[24] = tested on: MCF7 breast
[25] = tested on: MDA-MB-231 breast
[26] = tested on: MDA-MB-435
[27] = tested on: MOLT-4 leukemia
[28] = tested on: NCI-H226 lung
[29] = tested on: NCI-H23 lung
[30] = tested on: NCI-H460 lung
[31] = tested on: NCI-H522 lung
[32] = tested on: NCI/ADR-RES ovarian
[33] = tested on: OVCAR-3 ovarian
[34] = tested on: OVCAR-4 ovarian
[35] = tested on: OVCAR-5 ovarian
[36] = tested on: OVCAR-8 ovarian
[37] = tested on: PC-3 prostate
[38] = tested on: RPMI-8226 leukemia
[39] = tested on: RXF 393 renal
[40] = tested on: SF-268 CNS
[41] = tested on: SF-295 CNS
[42] = tested on: SF-539 CNS
[43] = tested on: SK-MEL-2 melanoma
[44] = tested on: SK-MEL-28 melanoma
[45] = tested on: SK-MEL-5 melanoma
[46] = tested on: SK-OV-3 ovarian
[47] = tested on: SN12C renal
[48] = tested on: SNB-19 CNS
[49] = tested on: SNB-75 CNS
[50] = tested on: SR leukemia
[51] = tested on: SW-620 colon
[52] = tested on: T-47D breast
[53] = tested on: TK-10 renal
[54] = tested on: U251 CNS
[55] = tested on: UACC-257 melanoma
[56] = tested on: UACC-62 melanoma
[57] = tested on: UO-31 renal
[58] = tested on: EKVX NSCLC

CN[C@H](C#Cc1c(F)ccc2c1/C(=C/c1[nH]ccc1OC)C(=O)N2)CO
GI50 [1]: 462 nM | TGI [1]: 4.18 µM | GI50 [2]: 452 nM | TGI [2]: 3.35 µM | GI50 [3]: 354 nM | TGI [3]: 2.82 µM | GI50 [4]: 115 nM | TGI [4]: 2.71 µM | GI50 [5]: 1150 nM | TGI [5]: 4.15 µM | GI50 [6]: 0.0314 µM | TGI [6]: 0.736 µM | GI50 [7]: 349 nM | TGI [7]: 1.83 µM | GI50 [8]: 897 nM | TGI [8]: 3.39 µM | GI50 [9]: 411 nM | TGI [9]: 3 µM | GI50 [10]: 746 nM | TGI [10]: 3.27 µM | GI50 [11]: 136 nM | TGI [11]: 5.21 µM | GI50 [12]: 117 nM | TGI [12]: 3.02 µM | GI50 [13]: 513 nM | TGI [13]: 2.01 µM | GI50 [14]: 628 nM | TGI [14]: 2.42 µM | GI50 [15]: 3170 nM | TGI [15]: 11.8 µM | GI50 [16]: 212 nM | TGI [16]: 12.9 µM | GI50 [17]: 438 nM | TGI [17]: 2.39 µM | GI50 [18]: 682 nM | TGI [18]: 3.32 µM | GI50 [19]: 989 nM | TGI [19]: 5.89 µM | GI50 [20]: 36 nM | TGI [20]: 1.76 µM | GI50 [21]: 344 nM | TGI [21]: 2540 nM | GI50 [22]: 403 nM | TGI [22]: 3.14 µM | GI50 [23]: 1460 nM | TGI [23]: 5.06 µM | GI50 [24]: 569 nM | TGI [24]: 3680 nM | GI50 [25]: 787 nM | TGI [25]: 3 µM | GI50 [26]: 354 nM | TGI [26]: 2.82 µM | GI50 [27]: 386 nM | TGI [27]: 3.8 µM | GI50 [28]: 410 nM | TGI [28]: 1.72 µM | GI50 [29]: 657 nM | TGI [29]: 3.11 µM | GI50 [30]: 358 nM | TGI [30]: 2580 nM | GI50 [31]: 659 nM | TGI [31]: 2.45 µM | GI50 [32]: 973 nM | TGI [32]: 6.58 µM | GI50 [33]: 869 nM | TGI [33]: 3.1 µM | GI50 [34]: 631 nM | TGI [34]: 4.22 µM | GI50 [35]: 917 nM | TGI [35]: 3.71 µM | GI50 [36]: 551 nM | TGI [36]: 4.25 µM | GI50 [37]: 1030 nM | TGI [37]: 10.8 µM | GI50 [38]: 689 nM | TGI [38]: 1800 nM | GI50 [39]: 85.5 nM | TGI [39]: 0.704 µM | GI50 [40]: 509 nM | TGI [40]: 2.21 µM | GI50 [41]: 946 nM | TGI [41]: 25 µM | GI50 [42]: 431 nM | TGI [42]: 1530 nM | GI50 [43]: 199 nM | TGI [43]: 0.749 µM | GI50 [44]: 646 nM | TGI [44]: 4.31 µM | GI50 [45]: 511 nM | TGI [45]: 1920 nM | GI50 [46]: 117 nM | TGI [46]: 8.12 µM | GI50 [47]: 200 nM | TGI [47]: 25 µM | GI50 [48]: 1060 nM | TGI [48]: 21 µM | GI50 [49]: 77.7 nM | TGI [49]: 3.88 µM | GI50 [50]: 109 nM | TGI [50]: 1910 nM | GI50 [51]: 476 nM | TGI [51]: 2.71 µM | GI50 [52]: 2270 nM | TGI [52]: 13.6 µM | GI50 [53]: 247 nM | TGI [53]: 2.25 µM | GI50 [54]: 323 nM | TGI [54]: 2.94 µM | GI50 [55]: 1520 nM | TGI [55]: 4.93 µM | GI50 [56]: 671 nM | TGI [56]: 4.6 µM | GI50 [57]: 0.335 µM | TGI [57]: 2.54 µM

CC1OC(n2c3ccccc3c3c4c(c5c6ccccc6[nH]c5c32)C(=O)N(CCN[C@@H]2CCC[C@H]2N)C4=O)CC(O)C1O (stereo partly drawn)
GI50 [1]: 2350 nM | TGI [1]: 9.9 µM | GI50 [2]: 1930 nM | TGI [2]: 8.24 µM | GI50 [3]: 2480 nM | TGI [3]: 9.17 µM | GI50 [4]: 2970 nM | TGI [4]: 10.5 µM | GI50 [5]: 1740 nM | TGI [5]: 8.85 µM | GI50 [6]: 6.24 µM | TGI [6]: 12.9 µM | GI50 [7]: 1250 nM | TGI [7]: 6.27 µM | GI50 [8]: 1010 nM | TGI [8]: 4.19 µM | GI50 [9]: 2220 nM | TGI [9]: 8.31 µM | GI50 [58]: 1800 nM | TGI [58]: 8.35 µM | GI50 [10]: 3230 nM | TGI [10]: 11.4 µM | GI50 [11]: 1320 nM | TGI [11]: 5.54 µM | GI50 [12]: 5880 nM | TGI [12]: 12.6 µM | GI50 [13]: 1260 nM | TGI [13]: 8.23 µM | GI50 [14]: 1740 nM | TGI [14]: 7.24 µM | GI50 [15]: 2310 nM | TGI [15]: 9.06 µM | GI50 [16]: 1630 nM | TGI [16]: 9.73 µM | GI50 [17]: 1330 nM | TGI [17]: 5.46 µM | GI50 [18]: 1870 nM | TGI [18]: 9.68 µM | GI50 [19]: 850 nM | TGI [19]: 2.76 µM | GI50 [20]: 1350 nM | TGI [20]: 6.11 µM | GI50 [21]: 835 nM | TGI [21]: 2680 nM | GI50 [22]: 1630 nM | TGI [22]: 7.14 µM | GI50 [23]: 2060 nM | TGI [23]: 9.07 µM | GI50 [24]: 768 nM | TGI [24]: 2050 nM | GI50 [25]: 1880 nM | TGI [25]: 8.16 µM | GI50 [26]: 1440 nM | TGI [26]: 6.46 µM | GI50 [27]: 747 nM | TGI [27]: 4.74 µM | GI50 [28]: 1790 nM | TGI [28]: 8.82 µM | GI50 [29]: 1700 nM | TGI [29]: 7.6 µM | GI50 [30]: 744 nM | TGI [30]: 1570 nM | GI50 [31]: 962 nM | TGI [31]: 5.26 µM | GI50 [32]: > 50000 nM | TGI [32]: > 50 µM | GI50 [33]: 1710 nM | TGI [33]: 6.82 µM | GI50 [34]: 1720 nM | TGI [34]: 7.06 µM | GI50 [35]: 3660 nM | TGI [35]: 11.6 µM | GI50 [36]: 1930 nM | TGI [36]: 9.11 µM | GI50 [37]: 1550 nM | TGI [37]: 6.13 µM | GI50 [38]: 1140 nM | TGI [38]: 2890 nM | GI50 [39]: 1680 nM | TGI [39]: 7.45 µM | GI50 [40]: 1480 nM | TGI [40]: 8.06 µM | GI50 [41]: 1740 nM | TGI [41]: 7.04 µM | GI50 [43]: 3680 nM | TGI [43]: 11.8 µM | GI50 [44]: 2650 nM | TGI [44]: 9.59 µM | GI50 [45]: 1220 nM | TGI [45]: 3680 nM | GI50 [46]: 2510 nM | TGI [46]: 9.09 µM | GI50 [47]: 1480 nM | TGI [47]: 6.5 µM | GI50 [48]: 1390 nM | TGI [48]: 6.58 µM | GI50 [49]: 918 nM | TGI [49]: 5.68 µM | GI50 [50]: 439 nM | TGI [50]: 3940 nM | GI50 [51]: 1050 nM | TGI [51]: 5.71 µM | GI50 [52]: 1040 nM | TGI [52]: 6.46 µM | GI50 [53]: 2980 nM | TGI [53]: 11 µM | GI50 [54]: 1050 nM | TGI [54]: 5.74 µM | GI50 [55]: 3730 nM | TGI [55]: 10.5 µM | GI50 [56]: 872 nM | TGI [56]: 2.8 µM | GI50 [57]: 6.45 µM | TGI [57]: 15 µM
